Measurements as given in US11697648B2, “Fused pyrimidine pyridinone compounds as JAK inhibitors” (THERAVANCE BIOPHARMA R&D IP, LLC, priority 2019, dated 2023).

Key:
JAK3 = JAK3 (Homo sapiens (Human), UniProt P52333); assay: Biochemical JAK3 kinase assay (LanthaScreen); conditions: for JAK3 (pKi)-JAK1 (pKi): selectivity JAK3 over JAK1, difference of pKi
Summary of the method: (§1)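 GST-JAK + GFP-STAT1 peptide, HEPES pH 7.5/MgCl2/EGTA/Brij-35 buffer; cpd preincubation 1 h RT; ATP start, 1 h RT; stop with 10 mM EDTA + 2 nM Tb-anti-pSTAT1; TR-FRET 520/495. 4-parameter IC50 → pKi (Cheng-Prusoff).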

JAK2 = JAK2 (Homo sapiens (Human), UniProt O60674); assay: Biochemical JAK2 kinase assay (LanthaScreen)
Sequence of JAK2 (O60674 whole entry): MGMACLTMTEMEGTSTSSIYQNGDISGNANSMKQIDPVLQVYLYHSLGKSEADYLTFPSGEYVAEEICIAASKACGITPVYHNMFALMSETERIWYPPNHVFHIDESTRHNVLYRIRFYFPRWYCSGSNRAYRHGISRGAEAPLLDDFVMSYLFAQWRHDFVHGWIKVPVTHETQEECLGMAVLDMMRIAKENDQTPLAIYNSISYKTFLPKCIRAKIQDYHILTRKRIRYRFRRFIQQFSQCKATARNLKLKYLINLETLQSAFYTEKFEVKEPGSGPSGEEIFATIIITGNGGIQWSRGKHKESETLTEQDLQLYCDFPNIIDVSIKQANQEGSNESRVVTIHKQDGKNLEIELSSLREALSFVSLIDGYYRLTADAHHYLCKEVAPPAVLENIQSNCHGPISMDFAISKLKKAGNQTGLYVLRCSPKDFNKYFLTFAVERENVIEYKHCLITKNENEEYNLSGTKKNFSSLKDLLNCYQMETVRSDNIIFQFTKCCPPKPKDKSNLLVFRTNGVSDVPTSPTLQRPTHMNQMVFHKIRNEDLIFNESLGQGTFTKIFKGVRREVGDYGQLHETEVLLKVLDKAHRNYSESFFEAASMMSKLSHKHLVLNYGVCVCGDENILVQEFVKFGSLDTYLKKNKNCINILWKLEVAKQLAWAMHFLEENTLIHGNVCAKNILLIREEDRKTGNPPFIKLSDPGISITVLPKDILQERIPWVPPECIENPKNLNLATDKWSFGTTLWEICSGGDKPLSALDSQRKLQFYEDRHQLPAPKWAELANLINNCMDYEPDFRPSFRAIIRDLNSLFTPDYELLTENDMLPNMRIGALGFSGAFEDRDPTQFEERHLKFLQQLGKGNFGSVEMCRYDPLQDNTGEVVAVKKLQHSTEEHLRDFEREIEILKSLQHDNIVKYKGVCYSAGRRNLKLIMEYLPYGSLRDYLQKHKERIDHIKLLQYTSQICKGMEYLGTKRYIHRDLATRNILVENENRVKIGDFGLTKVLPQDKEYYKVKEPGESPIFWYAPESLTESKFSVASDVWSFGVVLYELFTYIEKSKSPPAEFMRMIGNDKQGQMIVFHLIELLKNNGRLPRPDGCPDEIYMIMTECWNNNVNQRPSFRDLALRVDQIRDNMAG
Summary of the method: as §1

Tyk2 = Tyk2 (Homo sapiens (Human), UniProt P29597); assay: Biochemical Tyk2 kinase assay (LanthaScreen)
Sequence of Tyk2 (P29597 whole entry): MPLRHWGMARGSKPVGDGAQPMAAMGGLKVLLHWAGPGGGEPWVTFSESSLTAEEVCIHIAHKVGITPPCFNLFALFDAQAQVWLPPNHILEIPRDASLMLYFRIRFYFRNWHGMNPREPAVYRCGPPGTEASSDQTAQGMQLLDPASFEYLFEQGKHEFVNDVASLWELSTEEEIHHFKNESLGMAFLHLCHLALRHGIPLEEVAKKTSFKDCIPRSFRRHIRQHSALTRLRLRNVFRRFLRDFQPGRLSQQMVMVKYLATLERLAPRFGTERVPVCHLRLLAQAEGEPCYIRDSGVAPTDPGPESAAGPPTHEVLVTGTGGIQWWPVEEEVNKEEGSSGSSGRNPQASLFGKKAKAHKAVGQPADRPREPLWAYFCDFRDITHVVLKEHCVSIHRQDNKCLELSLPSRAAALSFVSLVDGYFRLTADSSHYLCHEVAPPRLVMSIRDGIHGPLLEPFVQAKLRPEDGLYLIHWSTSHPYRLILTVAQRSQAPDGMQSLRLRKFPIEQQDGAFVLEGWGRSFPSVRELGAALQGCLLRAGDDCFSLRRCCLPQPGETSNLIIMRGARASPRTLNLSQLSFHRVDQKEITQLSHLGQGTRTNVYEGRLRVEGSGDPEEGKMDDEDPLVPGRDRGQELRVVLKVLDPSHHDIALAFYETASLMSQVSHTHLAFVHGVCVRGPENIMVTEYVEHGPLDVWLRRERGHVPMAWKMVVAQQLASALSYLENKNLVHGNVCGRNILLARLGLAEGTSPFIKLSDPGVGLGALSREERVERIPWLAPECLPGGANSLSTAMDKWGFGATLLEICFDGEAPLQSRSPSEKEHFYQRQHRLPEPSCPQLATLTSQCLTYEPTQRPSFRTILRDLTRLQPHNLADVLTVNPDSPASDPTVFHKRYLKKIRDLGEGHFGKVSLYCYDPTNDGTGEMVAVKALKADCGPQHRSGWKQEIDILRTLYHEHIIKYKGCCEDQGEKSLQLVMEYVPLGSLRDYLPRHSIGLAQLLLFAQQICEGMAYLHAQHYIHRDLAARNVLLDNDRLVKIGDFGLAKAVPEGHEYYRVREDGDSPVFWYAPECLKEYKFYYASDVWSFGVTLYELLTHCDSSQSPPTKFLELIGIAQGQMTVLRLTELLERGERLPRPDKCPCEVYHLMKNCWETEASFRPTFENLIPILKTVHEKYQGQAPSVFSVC
Summary of the method: as §1

Caco-2 cell monolayers = assay: Caco-2 permeation assay; format: in vitro ADME; conditions: 5 μM, A-B direction, with Verapamil (25 μM)
Summary of the method: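 Compounds tested at 5 μM in duplicate across Caco-2 monolayers, apical-to-basolateral, with 25 μM verapamil to block P-gp, at 37° C., 5% CO2. Apical and basal samples taken at 0 and 120 min, analysed by LC-MS/MS; Papp (cm/sec) calculated as dQ/(dt×Area×concentration).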

JAK1 = JAK1 (Homo sapiens (Human), UniProt P23458); assay: Biochemical JAK1 kinase assay (LanthaScreen)
Sequence of JAK1 (P23458 whole entry): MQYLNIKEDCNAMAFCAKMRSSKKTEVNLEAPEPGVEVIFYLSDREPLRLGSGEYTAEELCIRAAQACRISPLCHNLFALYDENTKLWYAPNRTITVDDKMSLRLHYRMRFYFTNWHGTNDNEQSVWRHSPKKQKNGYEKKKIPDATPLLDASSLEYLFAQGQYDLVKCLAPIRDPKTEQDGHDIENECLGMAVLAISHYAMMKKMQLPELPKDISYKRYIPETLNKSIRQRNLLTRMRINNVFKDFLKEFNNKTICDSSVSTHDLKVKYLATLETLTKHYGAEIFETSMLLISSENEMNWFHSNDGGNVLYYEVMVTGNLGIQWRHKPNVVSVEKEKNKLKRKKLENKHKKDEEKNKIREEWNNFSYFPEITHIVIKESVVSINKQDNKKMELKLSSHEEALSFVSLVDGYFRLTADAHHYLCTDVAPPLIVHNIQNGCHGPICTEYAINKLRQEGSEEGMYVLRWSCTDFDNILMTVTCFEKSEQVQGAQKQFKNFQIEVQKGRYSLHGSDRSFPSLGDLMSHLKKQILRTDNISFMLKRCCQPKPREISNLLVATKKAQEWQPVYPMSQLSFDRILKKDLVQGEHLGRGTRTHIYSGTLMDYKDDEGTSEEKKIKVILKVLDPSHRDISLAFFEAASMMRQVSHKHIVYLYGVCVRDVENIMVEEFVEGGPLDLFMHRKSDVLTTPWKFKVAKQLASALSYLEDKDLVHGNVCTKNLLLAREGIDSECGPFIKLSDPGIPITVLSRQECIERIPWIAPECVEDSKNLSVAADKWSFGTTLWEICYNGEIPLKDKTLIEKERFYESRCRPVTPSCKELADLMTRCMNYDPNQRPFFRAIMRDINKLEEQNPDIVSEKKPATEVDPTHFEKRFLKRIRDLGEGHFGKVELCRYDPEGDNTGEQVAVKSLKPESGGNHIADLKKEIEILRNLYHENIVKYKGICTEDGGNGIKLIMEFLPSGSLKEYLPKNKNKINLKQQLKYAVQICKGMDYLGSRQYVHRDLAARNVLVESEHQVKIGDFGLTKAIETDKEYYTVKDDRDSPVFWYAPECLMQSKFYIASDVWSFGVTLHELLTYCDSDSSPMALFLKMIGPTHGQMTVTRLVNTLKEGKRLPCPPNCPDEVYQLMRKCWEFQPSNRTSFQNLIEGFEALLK
Summary of the method: as §1

[1] = test system: IL-2 stimulated STAT5 phosphorylation in Tall-1 human T cell line (JAK3); assay: Cellular JAK3 potency assay: inhibition of IL-2 stimulated pSTAT5 in Tall-1 T cells; format: cell-based; conditions: IL-2 stimulated pSTAT5, Tall-1 T cells
Summary of the method: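 Tall-1 cells, 45,000 per well, preincubated 1 hour with compound at 37 °C, then stimulated 30 minutes with IL-2 at 300 ng/ml final. pSTAT5 (Tyr694/699) in lysates quantified by AlphaLISA SureFire Ultra. pIC50 derived from inhibition curves, given as mean with SD.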

Sequence of JAK3 (P52333 whole entry): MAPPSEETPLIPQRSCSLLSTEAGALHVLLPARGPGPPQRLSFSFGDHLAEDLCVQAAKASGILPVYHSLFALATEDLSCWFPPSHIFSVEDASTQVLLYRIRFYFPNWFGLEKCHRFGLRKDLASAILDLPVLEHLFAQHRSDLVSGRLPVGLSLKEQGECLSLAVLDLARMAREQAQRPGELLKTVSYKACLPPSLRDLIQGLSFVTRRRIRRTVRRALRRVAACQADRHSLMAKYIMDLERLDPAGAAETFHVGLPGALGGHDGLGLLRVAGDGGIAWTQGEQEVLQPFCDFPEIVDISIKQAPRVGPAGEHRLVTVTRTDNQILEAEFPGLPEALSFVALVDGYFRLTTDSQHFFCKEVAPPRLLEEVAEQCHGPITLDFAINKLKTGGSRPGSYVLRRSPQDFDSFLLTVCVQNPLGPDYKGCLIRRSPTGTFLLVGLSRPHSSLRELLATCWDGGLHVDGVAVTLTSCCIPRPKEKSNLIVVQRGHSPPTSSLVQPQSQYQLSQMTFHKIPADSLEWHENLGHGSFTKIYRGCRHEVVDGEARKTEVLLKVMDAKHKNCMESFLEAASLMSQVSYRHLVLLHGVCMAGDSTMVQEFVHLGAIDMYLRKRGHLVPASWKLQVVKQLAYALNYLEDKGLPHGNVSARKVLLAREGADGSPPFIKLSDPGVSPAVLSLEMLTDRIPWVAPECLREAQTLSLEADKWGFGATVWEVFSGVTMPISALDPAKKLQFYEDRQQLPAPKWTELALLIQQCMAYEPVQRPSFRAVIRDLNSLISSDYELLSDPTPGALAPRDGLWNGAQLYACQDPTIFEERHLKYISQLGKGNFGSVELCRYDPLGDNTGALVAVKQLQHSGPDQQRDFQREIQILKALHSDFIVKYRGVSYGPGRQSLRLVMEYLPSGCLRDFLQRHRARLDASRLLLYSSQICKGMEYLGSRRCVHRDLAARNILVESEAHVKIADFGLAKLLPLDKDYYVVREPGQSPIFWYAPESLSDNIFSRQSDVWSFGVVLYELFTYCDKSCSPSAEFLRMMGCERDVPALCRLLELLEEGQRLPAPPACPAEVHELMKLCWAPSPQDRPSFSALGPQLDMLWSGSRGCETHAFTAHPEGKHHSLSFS

| SMILES | JAK 3 (pKi) (JAK3) | JAK3 (pKi)-JAK1 (pKi) (JAK3) | JAK 2 (pKi) (JAK2) | Tyk 2 (pKi) (Tyk2) | Caco Kp (Caco-2 cell monolayers) | JAK 1 (pKi) (JAK1) | Tall-1 (pIC50) [1] |
| --- | --- | --- | --- | --- | --- | --- | --- |
| C=CC(=O)N1CC(CCn2c(=O)ccc3cnc(Nc4cccc(CN5CCSCC5)c4)nc32)C1 [Example 85] | A (A represents a pKi value≥10 (Ki≤0.1 nM)) | A (A represents a value of 3 or above) | E (E represents a pKi value of 7 or below (Ki of 100 nM or above)) | E (E represents a pKi value of 7 or below (Ki of 100 nM or above)) | C (C represents a value between 10×10^−6 and 30×10^−6 cm/sec) | E (E represents a pKi value of 7 or below (Ki of 100 nM or above)) | B (B represents a pC50 value between 6.7 (included) and 7.5 (IC50 between 200 nM and 32 nM)) |
| C=CC(=O)N1CC(CCn2c(=O)ccc3cnc(Nc4ccc(CN5CCSCC5)cc4)nc32)C1 [Example 86] | B (B represents pKi value between 9 and 10 (Ki between 1 nM and 0.1 nM)) | A (A represents a value of 3 or above) | E (E represents a pKi value of 7 or below (Ki of 100 nM or above)) | E (E represents a pKi value of 7 or below (Ki of 100 nM or above)) | C (C represents a value between 10×10^−6 and 30×10^−6 cm/sec) | E (E represents a pKi value of 7 or below (Ki of 100 nM or above)) | B (B represents a pC50 value between 6.7 (included) and 7.5 (IC50 between 200 nM and 32 nM)) |
| C=CC(=O)N1CC(CCn2c(=O)ccc3cnc(Nc4cccc(CN(C)C)c4)nc32)C1 [Example 90] | B (B represents pKi value between 9 and 10 (Ki between 1 nM and 0.1 nM)) | A (A represents a value of 3 or above) | E (E represents a pKi value of 7 or below (Ki of 100 nM or above)) | E (E represents a pKi value of 7 or below (Ki of 100 nM or above)) | A (A represents a value below 5×10^−6 cm/sec) | E (E represents a pKi value of 7 or below (Ki of 100 nM or above)) | B (B represents a pC50 value between 6.7 (included) and 7.5 (IC50 between 200 nM and 32 nM)) |
| C=CC(=O)N1CC(CCn2c(=O)ccc3cnc(Nc4ccc(N(C)C)cc4)nc32)C1 [Example 91] | A (A represents a pKi value≥10 (Ki≤0.1 nM)) | A (A represents a value of 3 or above) | E (E represents a pKi value of 7 or below (Ki of 100 nM or above)) | E (E represents a pKi value of 7 or below (Ki of 100 nM or above)) | D (D represents a value over 30×10^−6 cm/sec) | E (E represents a pKi value of 7 or below (Ki of 100 nM or above)) | B (B represents a pC50 value between 6.7 (included) and 7.5 (IC50 between 200 nM and 32 nM)) |
| C=CC(=O)N1CC(CCn2c(=O)ccc3cnc(Nc4ccc(N5CCN(S(C)(=O)=O)CC5)cc4)nc32)C1 [Example 94] | A (A represents a pKi value≥10 (Ki≤0.1 nM)) | A (A represents a value of 3 or above) | E (E represents a pKi value of 7 or below (Ki of 100 nM or above)) | E (E represents a pKi value of 7 or below (Ki of 100 nM or above)) | A (A represents a value below 5×10^−6 cm/sec) | E (E represents a pKi value of 7 or below (Ki of 100 nM or above)) | A (A represents a pIC50 value≥7.5 (IC50≤32 nM)) |
| C=CC(=O)N1CC(CCn2c(=O)ccc3cnc(Nc4ccc(N5CCN(C(=S)N(C)C)CC5)cc4)nc32)C1 [Example 95] | A (A represents a pKi value≥10 (Ki≤0.1 nM)) | A (A represents a value of 3 or above) | E (E represents a pKi value of 7 or below (Ki of 100 nM or above)) | E (E represents a pKi value of 7 or below (Ki of 100 nM or above)) | A (A represents a value below 5×10^−6 cm/sec) | E (E represents a pKi value of 7 or below (Ki of 100 nM or above)) | A (A represents a pIC50 value≥7.5 (IC50≤32 nM)) |
| C=CC(=O)N1CC(CCn2c(=O)ccc3cnc(Nc4ccc(N5CCN(S(=O)(=O)NC)CC5)cc4)nc32)C1 [Example 96] | A (A represents a pKi value≥10 (Ki≤0.1 nM)) | A (A represents a value of 3 or above) | E (E represents a pKi value of 7 or below (Ki of 100 nM or above)) | E (E represents a pKi value of 7 or below (Ki of 100 nM or above)) | A (A represents a value below 5×10^−6 cm/sec) | E (E represents a pKi value of 7 or below (Ki of 100 nM or above)) | B (B represents a pC50 value between 6.7 (included) and 7.5 (IC50 between 200 nM and 32 nM)) |
| C=CC(=O)N1CC(CCn2c(=O)ccc3cnc(Nc4ccc(N5CCN(C(=O)SC(C)(C)C)CC5)cc4)nc32)C1 [Example 98] | A (A represents a pKi value≥10 (Ki≤0.1 nM)) | A (A represents a value of 3 or above) | E (E represents a pKi value of 7 or below (Ki of 100 nM or above)) | E (E represents a pKi value of 7 or below (Ki of 100 nM or above)) | A (A represents a value below 5×10^−6 cm/sec) | E (E represents a pKi value of 7 or below (Ki of 100 nM or above)) | B (B represents a pC50 value between 6.7 (included) and 7.5 (IC50 between 200 nM and 32 nM)) |
| C=CC(=O)N1CC(CCn2c(=O)ccc3cnc(Nc4ccc(N5CCN(C(=O)OCCOC)CC5)cc4)nc32)C1 [Example 99] | A (A represents a pKi value≥10 (Ki≤0.1 nM)) | A (A represents a value of 3 or above) | E (E represents a pKi value of 7 or below (Ki of 100 nM or above)) | E (E represents a pKi value of 7 or below (Ki of 100 nM or above)) | A (A represents a value below 5×10^−6 cm/sec) | E (E represents a pKi value of 7 or below (Ki of 100 nM or above)) | B (B represents a pC50 value between 6.7 (included) and 7.5 (IC50 between 200 nM and 32 nM)) |
| C=CC(=O)N1CC(CCn2c(=O)ccc3cnc(Nc4ccc(N5CCN(C(=O)OC(C)C)CC5)cc4)nc32)C1 [Example 100] | A (A represents a pKi value≥10 (Ki≤0.1 nM)) | A (A represents a value of 3 or above) | E (E represents a pKi value of 7 or below (Ki of 100 nM or above)) | E (E represents a pKi value of 7 or below (Ki of 100 nM or above)) | A (A represents a value below 5×10^−6 cm/sec) | E (E represents a pKi value of 7 or below (Ki of 100 nM or above)) | A (A represents a pIC50 value≥7.5 (IC50≤32 nM)) |
| C=CC(=O)N1CC(CCn2c(=O)ccc3cnc(Nc4ccc(N5CCN(S(=O)(=O)CC#N)CC5)cc4)nc32)C1 [Example 101] | A (A represents a pKi value≥10 (Ki≤0.1 nM)) | A (A represents a value of 3 or above) | E (E represents a pKi value of 7 or below (Ki of 100 nM or above)) | E (E represents a pKi value of 7 or below (Ki of 100 nM or above)) | A (A represents a value below 5×10^−6 cm/sec) | E (E represents a pKi value of 7 or below (Ki of 100 nM or above)) | B (B represents a pC50 value between 6.7 (included) and 7.5 (IC50 between 200 nM and 32 nM)) |
| C=CC(=O)N1CC(CCn2c(=O)ccc3cnc(Nc4ccc(N5CCN(C(=O)[C@@H](C)O)CC5)cc4)nc32)C1 [Example 105] | A (A represents a pKi value≥10 (Ki≤0.1 nM)) | A (A represents a value of 3 or above) | E (E represents a pKi value of 7 or below (Ki of 100 nM or above)) | E (E represents a pKi value of 7 or below (Ki of 100 nM or above)) | A (A represents a value below 5×10^−6 cm/sec) | E (E represents a pKi value of 7 or below (Ki of 100 nM or above)) | B (B represents a pC50 value between 6.7 (included) and 7.5 (IC50 between 200 nM and 32 nM)) |
